# Test results as given in PMC9332756, “Exploration of Diazaspiro Cores as Piperazine Bioisosteres in the Development of σ2 Receptor Ligands” (International Journal of Molecular Sciences, 2022).
# What was measured:
# σ1R [1] = conditions: Figure 1; cited from earlier work
# σ2R [2] = conditions: Figure 1; cited from earlier work
# σ2R [3] = biological target: T1, σ2R (Rattus norvegicus, UniProt Q5U3Y7); experiment: σ2R radioligand binding assay with [125I]RHM-4, rat liver homogenates; conditions: for Ki: rat liver homogenates, [125I]RHM-4, mean ± SEM, at least three experiments; for σ1/σ2 Ratio: ratio of Ki σ1R to Ki σ2R
# T1 construct: from tissue; host or cells: rat liver homogenate
# T1 sequence (Q5U3Y7 1-176): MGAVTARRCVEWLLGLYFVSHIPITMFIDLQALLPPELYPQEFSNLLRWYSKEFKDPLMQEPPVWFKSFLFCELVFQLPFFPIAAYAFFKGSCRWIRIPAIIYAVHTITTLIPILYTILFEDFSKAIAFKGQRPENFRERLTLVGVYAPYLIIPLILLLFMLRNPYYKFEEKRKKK
# Experimental: (§1) Radioligand binding assays were conducted using [^125I]RHM-4 with rat liver homogenates for σ2R-binding properties and a σ1R assay using [^3H]-(+)-pentazocine with Guinea pig brain homogenates. Evaluation of the compounds in the in vitro radioligand binding studies was conducted using a two-step process. […] Compounds displaying ≥ 50% displacement of radioligand binding in σ1 and σ2 assays (Table 1) were chosen for full competition studies using 10 different concentrations of the displacer. A representative competition curve at σ1 and σ2 receptors is shown for compound 2t in Figure 2.
# (§2) For screening, [^3H]-(+)-pentazocine (~50,000 cpm) or [^125I]RHM-4 (~200,000 cpm) was mixed with 100 nM of tested compounds. Guinea pig brain homogenates (100 µg) or rat liver homogenates (15 µg) were added to mixture and incubated at 37 °C for 90 min. The mixture was filtered by harvester and washed 3 times using cold washing buffer (10 mM Tris-HCl, 150 mM NaCl). Collected filter was mixed with 3 mL of microscintTM20 and counted 1 min/well using beta counter. […] After that, protein was added and incubated at 37 °C for 90 min. The bound form was filtered by Whatman CF/C filter which was soaked in 1% of polyethyleneimine (PEI) in DW and then filters were washed tree times with cold washing buffer. The non-specific binding was determined in the presence of 10 µM of haloperidol or cold RHM-4. Filter was collected and read by scintillation counting (MicroBeta2 ®, PerkinElmer, Beaconsfield, UK) or gamma counter (PerkinElmer, Beaconsfield, UK). The data were analyzed using PRISM 8 (GraphPad Inc., San Diego, CA, USA).
# σ1R [4] = biological target: T2, σ1R (Cavia porcellus, UniProt Q60492); experiment: σ1R radioligand binding assay with [3H]-(+)-pentazocine, Guinea pig brain homogenates; conditions: mean ± SEM, at least three experiments
# T2 construct: from tissue; host or cells: Guinea pig brain homogenate
# T2 sequence (Q60492 whole entry): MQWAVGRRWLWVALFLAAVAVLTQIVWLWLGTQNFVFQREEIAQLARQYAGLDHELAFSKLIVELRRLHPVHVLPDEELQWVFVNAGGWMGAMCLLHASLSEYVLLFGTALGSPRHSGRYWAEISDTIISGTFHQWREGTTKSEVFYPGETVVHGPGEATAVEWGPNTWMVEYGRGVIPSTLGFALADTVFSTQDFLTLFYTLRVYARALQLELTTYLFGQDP
# Experimental: as §1, §2
# σ2R [5] = biological target: T1, σ2R; experiment: σ2R radioligand binding assay with [125I]RHM-4, rat liver homogenates; conditions: three-point screening assay (10 nM, 100 nM, 1 μM)
Ki (σ2R [3]),σ1/σ2 Ratio (σ2R [3]),Ki (σ1R [4]),Structure (SMILES),Ki (σ1R [1]),Ki (σ2R [2]),affinity for the σ2R (in words) (σ2R [5])
,,,COc1ccc(C)cc1NC(=O)OC1CC2CCCC(C1)N2CCCCCCN (stereo not shown) [SV 119],1420 ± 439 nM,5.19 ± 0.8 nM,
,,,Fc1ccc(-n2cc(CCCCN3CCC4(CC3)OCc3ccccc34)c3ccccc32)cc1 [Siramesine],17 nM,0.12 nM,
18.8 ± 1.6 nM,15,279 ± 30.7 nM,CCN(c1ccc(F)cc1)C1CN(CCCCn2c(=O)n(C)c3ccccc32)C1 [Compound 2u],,,
,,,Cn1c(=O)n(CCCCN2CC3CCC(C2)N3c2ccc(F)cc2)c2ccccc21 [Compound 2q],,,low affinity
40 ± 3.2 nM,1.1,45.9 ± 6.8 nM,Cn1c(=O)n(CCCCN2CC3(C2)CN(c2ccc(F)cc2)C3)c2ccccc21 [Compound 2o],,,
3.8 ± 0.9 nM,67,255 ± 29.9 nM,Cn1c(=O)n(CCCCN2CCCN(c3ccc(F)cc3)CC2)c2ccccc21 [Compound 2t],,,
2 ± 0.6 nM,351,702 ± 272 nM,"Cn1c(=O)n(CCCCN2CCN(c3cccc(F)c3)CC2)c2ccccc21 [Compound 7, reference compound]",,,
41.8 ± 7.5 nM,0.5,20.5 ± 3.3 nM,Cn1c(=O)n(CCCCN2CC3(C2)CN(c2ccccc2F)C3)c2ccccc21 [Compound 2n],,,
,279,251 ± 48.1 nM,"Cn1c(=O)n(CCCCN2CCN(c3ccc(F)cc3)CC2)c2ccccc21 [Compound 1, reference compound]",,,
24.4 ± 3.3 nM,27,659 ± 84.2 nM,Cn1c(=O)n(CCCCN2CCC3(CC2)CCN(c2ccccc2F)CC3)c2ccccc21 [Compound 2e],,,
10.7 ± 1.8 nM,66,712 ± 135 nM,Cn1c(=O)n(CCCCN2CC3CC2CN3c2ccc(F)cc2)c2ccccc21 (stereo not shown) [Compound 2r],,,
,,,Cn1c(=O)n(CCCCN2CC3CCN(c4ccc(F)cc4)C3C2)c2ccccc21 (stereo not shown) [Compound 2s],,,low affinity
,,,Cn1c(=O)n(CCCCN2CC3CCCC(C2)N3c2ccc(F)cc2)c2ccccc21 [Compound 2p],,,low affinity
,,,COc1cc2c(cc1OC)CN(CCCCNC(=O)c1cc(I)cc(OC)c1OC)CC2 [RHM-4],554 nM,1 nM,
,,,"COc1cccc2c1CCCC2CCCN1CCN(C2CCCCC2)CC1 (stereo not shown) [PB28, 1-cyclohexyl-4-[3-(5-methoxy-1,2,3,4-tetrahydronaphthalen-1-yl)propyl]piperazine]",0.38 ± 0.1 nM,0.68 ± 0.2 nM,
